Active and inactive are the calls of the source. The rule behind the calls is not given here.

The target in assay [1] is Mitogen-activated protein kinase 10 (Homo sapiens, UniProt P53779). Nature of the assay: Inhibition of human JNK3 incubated for 40 mins in presence of ATP and [gamma33P-ATP] by scintillation counting method. The note with it: read-out: IC50.
Assay [2] deals with Mitogen-activated protein kinase 8 (Homo sapiens, UniProt P45983). Kind of assay: Inhibition of human JNK1 incubated for 40 mins in presence of ATP and [gamma33P-ATP] by scintillation counting method.
Sequence of Mitogen-activated protein kinase 8 (P45983 whole entry): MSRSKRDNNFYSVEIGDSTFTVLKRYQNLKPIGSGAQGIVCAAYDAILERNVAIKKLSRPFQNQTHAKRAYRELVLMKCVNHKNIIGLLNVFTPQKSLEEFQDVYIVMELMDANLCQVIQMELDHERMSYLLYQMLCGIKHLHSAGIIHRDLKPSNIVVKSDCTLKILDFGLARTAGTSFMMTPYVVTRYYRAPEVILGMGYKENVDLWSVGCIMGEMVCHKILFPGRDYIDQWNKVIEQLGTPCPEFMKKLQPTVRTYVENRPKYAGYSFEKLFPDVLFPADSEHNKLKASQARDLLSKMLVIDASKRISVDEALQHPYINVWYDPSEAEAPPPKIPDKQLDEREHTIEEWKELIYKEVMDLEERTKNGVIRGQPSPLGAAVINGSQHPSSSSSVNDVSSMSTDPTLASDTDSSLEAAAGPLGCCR
Assay [3] addresses Mitogen-activated protein kinase 9 (Homo sapiens, UniProt P45984). Nature of the assay: Inhibition of human JNK2 incubated for 40 mins in presence of ATP and [gamma33P-ATP] by scintillation counting method.
The test system of a further assay is Cortical neurone. Kind of assay: Neuroprotective activity against Amyloid beta (1 to 42)-induced toxicity in rat cortical neuron assessed as cell viability measured after 24 to 48 hrs by MTT assay. It is filed as functional, cell-based. The conditions noted are these: time 24-48 hrs.

Sequence of Mitogen-activated protein kinase 9 (P45984 whole entry): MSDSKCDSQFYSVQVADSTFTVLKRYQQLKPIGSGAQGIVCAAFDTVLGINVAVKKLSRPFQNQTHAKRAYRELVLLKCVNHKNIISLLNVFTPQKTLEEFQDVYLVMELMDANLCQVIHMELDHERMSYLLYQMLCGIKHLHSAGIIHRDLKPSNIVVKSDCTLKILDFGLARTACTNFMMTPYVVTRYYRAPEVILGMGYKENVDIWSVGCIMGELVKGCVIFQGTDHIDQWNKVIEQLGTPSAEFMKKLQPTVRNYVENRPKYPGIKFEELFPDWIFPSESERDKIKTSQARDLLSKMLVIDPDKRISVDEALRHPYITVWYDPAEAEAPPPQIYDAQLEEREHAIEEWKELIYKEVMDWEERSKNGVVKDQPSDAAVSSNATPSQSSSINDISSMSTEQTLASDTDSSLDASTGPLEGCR
Sequence of Mitogen-activated protein kinase 10 (P53779 whole entry): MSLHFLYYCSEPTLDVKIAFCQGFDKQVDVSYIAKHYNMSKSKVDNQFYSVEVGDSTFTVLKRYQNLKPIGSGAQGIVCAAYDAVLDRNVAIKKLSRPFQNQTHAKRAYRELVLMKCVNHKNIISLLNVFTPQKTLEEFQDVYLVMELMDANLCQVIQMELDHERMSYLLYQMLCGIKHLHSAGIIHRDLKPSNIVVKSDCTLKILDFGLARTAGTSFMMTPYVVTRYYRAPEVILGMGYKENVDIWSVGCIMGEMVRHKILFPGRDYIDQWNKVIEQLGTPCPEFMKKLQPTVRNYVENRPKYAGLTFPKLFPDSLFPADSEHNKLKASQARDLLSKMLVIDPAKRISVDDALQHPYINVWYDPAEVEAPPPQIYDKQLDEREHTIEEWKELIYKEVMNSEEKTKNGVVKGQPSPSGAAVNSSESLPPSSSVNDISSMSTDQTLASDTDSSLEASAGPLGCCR

In the case of `N#CCc1cnc(-c2ccc3c(c2)OCCO3)n1-c1ccnc(NC2CCOCC2)n1`, in assay [1], the IC50 is greater than 10 µM.
Turning to `N#CCc1cnc(-c2ccc3ccccc3c2)n1-c1ccnc(N[C@H]2CCCNC2)n1`, the half-maximal inhibitory concentration (IC50) in assay [1] is greater than 10 µM.
Same read-out and setting: next, `N#CCc1cnc(C2=CC3OCCOC3C=C2)n1-c1ccnc(N[C@H]2CCCNC2)n1` (some centres not stated): greater than 10 µM.
For `N#CCc1cnc(-c2ccc3ccccc3n2)n1-c1ccnc(NC2CCOCC2)n1`, the IC50 in assay [1] is 13.5 µM.
Regarding `N#CCc1cnc(-c2ccc(F)c(C(F)(F)F)c2)n1-c1ccnc(NC2CCCCC2)n1`, the half-inhibitory concentration (IC50) in assay [1] came to 10 µM.
Consider `N#CCc1cnc(-c2ccc3c(c2)OCCO3)n1-c1ccnc(NC2CCCCC2)n1`, for which the concentration for half-maximal inhibition (IC50) in assay [1] amounted to 6.27 µM.
Take `N#CCc1cnc(-c2ccc3occc3c2)n1-c1ccnc(N[C@H]2CCCN(C(=O)C3CC3)C2)n1`: the values for the 50% inhibitory concentration (IC50) in assay [2], in assay [3] and in assay [1] were 0.359 µM, 0.268 µM and 0.0062 µM, respectively.
Turning to `CC(C)(C)C(=O)N1CCC[C@H](Nc2nccc(-n3c(CC#N)cnc3-c3ccc(Cl)c(Cl)c3)n2)C1`, the half-inhibitory concentration (IC50) turned out to be 0.444 µM in assay [2], 0.081 µM in assay [3] and 0.008 µM in assay [1].
Regarding `C[C@@H](O)CNc1nccc(-n2c(CC#N)cnc2-c2ccc(Cl)c(Cl)c2)n1`, in assay [1], the IC50 worked out at 6.76 µM.
On the same count and under the same terms, with `N#CCc1cnc(-c2ccc3ccccc3n2)n1-c1ccnc(N[C@H]2CCCN(C(=O)C3CC3)C2)n1` the figure was 0.396 µM.
`N#CCc1cnc(-c2ccc(Cl)c(Cl)c2)n1-c1ccnc(NC2CCOCC2)n1`: the half-inhibitory concentration (IC50) in assay [1] came out at 0.29 µM.
As to `N#CCc1cnc(-c2ccc(Cl)c(Cl)c2)n1-c1ccnc(N[C@H]2CCCN(C(=O)NC3CC3)C2)n1`, the 50% inhibitory concentration (IC50) in assay [2] came out at 0.513 µM; in assay [3] it was 0.0558 µM; in assay [1] it was 0.0053 µM.
With `C[C@@H](O)CNc1nccc(-n2c(CC#N)cnc2-c2ccc3ccccc3n2)n1`, the concentration for half-maximal inhibition (IC50) in assay [1] was greater than 10 µM.
In the case of `N#CCc1cnc(-c2ccc3ccccc3c2)n1-c1ccnc(N[C@H]2CCCCN(C(=O)C3CC3)C2)n1`, the IC50 in assay [2] worked out at 0.962 µM; in assay [3], 0.241 µM; in assay [1], 0.0241 µM.
`N#CCc1cnc(-c2ccc3ccccc3n2)n1-c1ccnc(NC2CCCCC2)n1`: the IC50 in assay [1] was greater than 10 µM.
As to `Oc1ccc(/C=C/c2cc(O)cc(O)c2)cc1`, the result in the assay with Cortical neurone was Active.
In the case of `N#CCc1cnc(-c2ccc3ccccc3c2)n1-c1ccnc(NC2CCOCC2)n1`, the IC50 in assay [1] was 0.321 µM.
Consider `N#CCc1cnc(-c2ccc3c(c2)OCO3)n1-c1ccnc(NC2CCOCC2)n1`, for which the IC50 in assay [1] is 8.56 µM.
On to `N#CCc1cnc(-c2ccc3ccccc3c2)n1-c1ccnc(NC2CCCCC2)n1`, for which the IC50 in assay [1] was determined as 0.142 µM.
